According to patent US9920040B2, “GPR40 agonists for the treatment of type II diabetes” (Janssen Pharmaceutica NV, priority 2015, dated 2018):
“And” between values parts separate entries of the source, which are not always exact repeats. Equal values may be shown once.

Each compound was assayed against T1, human GPR40 (Homo sapiens, UniProt O14842) (assay: GPR40 calcium flux assay, human GPR40). Details: transfected HEK293 cells stably expressing human GPR40; multiple values = repeated testing; read-out: hGPR40 Ca^2+ Assay EC50.
T1 construct: expressed in transfected cells
T1 sequence (O14842 whole entry): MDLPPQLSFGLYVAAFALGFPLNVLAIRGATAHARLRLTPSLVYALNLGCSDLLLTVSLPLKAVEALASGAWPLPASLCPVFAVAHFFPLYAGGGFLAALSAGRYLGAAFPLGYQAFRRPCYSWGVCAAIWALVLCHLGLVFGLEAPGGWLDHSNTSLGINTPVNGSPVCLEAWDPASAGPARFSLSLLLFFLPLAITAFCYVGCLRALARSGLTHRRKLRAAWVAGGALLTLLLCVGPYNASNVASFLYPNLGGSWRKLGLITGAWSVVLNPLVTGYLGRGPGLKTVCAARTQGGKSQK
Format: cell-based
Protocol: Compounds were tested in a calcium flux assay using transfected HEK293 cells stably expressing either human GPR40 or rat GPR40. Human GPR40 expressing cells were cultured in DMEM-High Glucose media supplemented with 10% fetal bovine serum, 1×L-Glutamine, 1×Penicillin/Streptomycin and 500 μg/mL G418. Rat GPR40 expressing cells were cultured in DMEM-High Glucose media supplemented with 10% fetal bovine serum and 1 μg/mL puromycin. Cells were plated into poly-D-lysine coated 384-well plates and cultured overnight in a 37° C. humidified tissue culture incubator under 5% CO2/[…] atmosphere. On the day of the experiment, the culture media was replaced with assay buffer (HBSS, 20 mM HEPES, 0.1% BSA) and the cells incubated at 37° C. for 1 h. Calcium-sensitive fluorescent dye (Fluo 8 No-Wash Calcium Dye, ABD Bioquest) was then added and the cells incubated for another 30 min at 37° C. followed by 15 min at room temperature while protected from the light. The cell plate and a plate of diluted compounds of Formula (I) were loaded into a fluorescent plate reader that added compounds onto the cells while measuring the fluorescence intensity of each well. The plate reader recorded fluorescence intensity at 1 second intervals for 8 min and provided the data for analysis in an Excel format. EC50 values were calculated using Prism (GraphPad) software.

Row | Compound | EC50
1 | COc1ccc(F)c(-c2onc(COc3cccc([C@@H](CC(=O)O)C4CC4)c3)c2OC2CC(C)(C)CC(C)(C)C2)c1 [Cpd 3, (3S)-3-cyclopropyl-3-[3-[[5-(2-fluoro-5-methoxy-phenyl)-4-(3,3,5,5-tetramethylcyclohexoxy)isoxazol-3-yl]methoxy]phenyl]propanoic acid] | 5 nM
2 | COc1ccc(F)c(-c2onc(COc3cccc([C@@H](CC(=O)O)C4CC4)c3)c2OCC2C(C)(C)C2(C)C)c1 [Cpd 11, (3S)-3-cyclopropyl-3-[3-[[5-(2-fluoro-5-methoxy-phenyl)-4-[(2,2,3,3-tetramethylcyclopropyl)methoxy]isoxazol-3-yl]methoxy]phenyl]propanoic acid] | 58 nM
3 | COc1cc(-c2onc(COc3cccc([C@@H](CC(=O)O)C4CC4)c3)c2CC(C)C)c(F)cn1 [Cpd 12, (3S)-3-cyclopropyl-3-[3-[[5-(5-fluoro-2-methoxy-4-pyridyl)-4-isobutyl-isoxazol-3-yl]methoxy]phenyl]propanoic acid] | 1270 nM
4 | COc1ccc(F)c(-c2scc(COc3cccc([C@@H](CC(=O)O)C4CC4)c3)c2C2=CCCC2(C)C)c1 [Cpd 13, (3S)-3-cyclopropyl-3-[3-[[4-(5,5-dimethylcyclopenten-1-yl)-5-(2-fluoro-5-methoxy-phenyl)-3-thienyl]methoxy]phenyl]propanoic acid] | 53 nM and 51 nM and 22 nM and 13 nM and 87 nM and 71 nM
5 | COc1ccc(F)c(-c2scc(COc3cccc([C@@H](CC(=O)O)C4CC4)c3)c2C2CC2)c1 [Cpd 14, (3S)-3-cyclopropyl-3-[3-[[4-cyclopropyl-5-(2-fluoro-5-methoxy-phenyl)-3-thienyl]methoxy]phenyl]propanoic acid] | 108 nM and 89 nM
6 | CC1(C)CCC=C1c1c(COc2cccc([C@@H](CC(=O)O)C3CC3)c2)csc1-c1ccsc1 [Cpd 16, (3S)-3-cyclopropyl-3-[3-[[4-(5,5-dimethylcyclopenten-1-yl)-5-(3-thienyl)-3-thienyl]methoxy]phenyl]propanoic acid] | 87 nM and 65 nM
7 | CN(C)c1cccc(-c2scc(COc3cccc([C@@H](CC(=O)O)C4CC4)c3)c2C2=CCCC2(C)C)c1 [Cpd 17, (3S)-3-cyclopropyl-3-[3-[[5-[3-(dimethylamino)phenyl]-4-(5,5-dimethylcyclopenten-1-yl)-3-thienyl]methoxy]phenyl]propanoic acid] | 242 nM and 232 nM
8 | COc1ccc(-c2scc(COc3cccc([C@@H](CC(=O)O)C4CC4)c3)c2C2=CCCC2(C)C)c(F)c1 [Cpd 18, (3S)-3-cyclopropyl-3-[3-[[4-(5,5-dimethylcyclopenten-1-yl)-5-(2-fluoro-4-methoxy-phenyl)-3-thienyl]methoxy]phenyl]propanoic acid] | 305 nM and 152 nM
9 | COc1ccc(F)c(-c2scc(COc3cccc([C@@H](CC(=O)O)C4CC4)c3)c2C(C)C(F)(F)F)c1 (stereo partly drawn) [Cpd 19, (3S)-3-cyclopropyl-3-[3-[[5-(2-fluoro-5-methoxy-phenyl)-4-(2,2,2-trifluoro-1-methyl-ethyl)-3-thienyl]methoxy]phenyl]propanoic acid] | 253 nM and 128 nM
10 | CC1(C)CCC=C1c1c(COc2cccc([C@@H](CC(=O)O)C3CC3)c2)csc1-c1ccccc1 [Cpd 20, (3S)-3-cyclopropyl-3-[3-[[4-(5,5-dimethylcyclopenten-1-yl)-5-phenyl-3-thienyl]methoxy]phenyl]propanoic acid] | 79 nM and 71 nM
11 | CC1(C)CCC=C1c1c(COc2cccc([C@@H](CC(=O)O)C3CC3)c2)csc1-c1ccccc1F [Cpd 21, (3S)-3-cyclopropyl-3-[3-[[4-(5,5-dimethylcyclopenten-1-yl)-5-(2-fluorophenyl)-3-thienyl]methoxy]phenyl]propanoic acid] | 110 nM and 66 nM
12 | COc1ccccc1-c1scc(COc2cccc([C@@H](CC(=O)O)C3CC3)c2)c1C1=CCCC1(C)C [Cpd 22, (3S)-3-cyclopropyl-3-[3-[[4-(5,5-dimethylcyclopenten-1-yl)-5-(2-methoxyphenyl)-3-thienyl]methoxy]phenyl]propanoic acid] | 47 nM and 41 nM
